This is an account of results in patent US6492330B1, “Antiangiogenic drugs” (National Institute of Immunology, priority 1996, dated 2002).

What all share (format): cell-based
Test [1] has as its system EaHy.926. In words: MTT assay, inhibition of proliferation of endothelial cells EaHy.926. As to conditions: 72 hours. How it is done:
(§1) 150 μl of medium was added to the wells of a 96-well tissue culture plate (Nunc, Denmark) followed by 30 μl of cell suspension. The plate was left in incubator (37° C., 5% CO2) overnight. Each of the seven peptides of the combination MuJ-7 were added at three molar concentrations of 10^−7M, 10^−8M and 10^−9M. 20 μl of MuJ-7 at three concentrations of N/10, N and 10N was added to marked wells of the 96-well plate. The value of N for each of the individual peptides was 10^−8M for VIP2, BOM1, SP1, VIP3, and SOM2 and 10^−7M for VIP1, and 10^−9M for SOM1. Each concentration was plated in triplicate. 20 μl of medium alone was added to control wells while wells without cells served as blanks. A total volume of 200 μl was ensured in each well and the plate was left in an incubator (37° C., 5% CO2). After 72 hours of incubation an MTT assay was performed and percentage inhibition in proliferation of treated cells was calculated with respect to control cells.

Test [2] concerns ECV.304 cells. In words: MTT assay, inhibition of proliferation of endothelial cells ECV.304. The conditions noted are these: for Percent Inhibition Proliferation: 72 hours (Table 1); for PERCENT INHIBITION OF PROLIFERATION: 72 hours (Table 2). How it is done:
as §1
150 μl of medium was added to the wells of a 96-well tissue culture plate (Nunc, Denmark) followed by 30 μl of cell suspension. The plate was left in incubator (37° C., 5% CO2) overnight. Novel peptides shown below were incubated with cells at concentration range of 10^−7 to 10^−9 M (except DT71 at concentration range 10^−8 to 10^−10 M). Each concentration was plated in triplicates. 20 μl of medium alone was added to control wells while wells without cells served as blanks. A total volume of 200 μl was ensured in each well and plate was left in incubator (37° C., 5% CO2). After 72 hours of incubation an MTT assay was performed and percentage inhibition in proliferation of treated cells was calculated with respect to control cells.

Test [3] concerns endothelial cells ECV.304. As to the kind of experiment: Migration assay across 8 μm polycarbonate filter transwell inserts. The conditions noted are these: for Percent inhibition in migration: N = 10^−8 M for VIP2, BOM1, SP1, VIP3, SOM2, 10^−7M for VIP1, 10^−9M for SOM1, 24 hours; for PERCENT INHIBITION MIGRATION: 24 hours (Table 4). Here is the method: Polycarbonate filter transwell inserts (24 well size) with 8 μm pores (Nunc, Denmark) were used for the migration assay. ECV304 (10^4 cells/200 ul DMEM containing 0.1% BSA) was added to the upper chamber. The lower chamber contained 600 ul of DMEM with 0.1% BSA. Individual peptides of the composition MuJ-7 at six different concentrations each of N/100, N/10, N, 10N, 100N and 1000N were added directly to the upper well and the plate incubated at 37° C. for 24 hours. The cells migrated to the lower chamber were viewed randomly at five different phase-contrast microscopic fields and the total number of cells counted using Video Pro 32 Image Analysis system. Percent inhibition in migration was determined with reference to the Control. Similarly, […] different concentrations of N/100, N/10, N, 10N, 100N and 1000N of MuJ-7 were added directly to the upper well and the plate incubated at 37° C. for 24 hours. The cells migrated to the lower chamber were counted as described above.
Polycarbonate filter trasnwell inserts (24 well size) with 8 μm pores (Nuno, Denmark) were used for the migration assay. ECV304 (10^4 cells/200 ul DMEM containing 0.1% BSA) was added to the upper chamber. The lower chamber contained 600 ul of DMEM with 0.1% BSA. […] The sequence of each of the peptides added are described above. The cells migrated to the lower chamber were viewed randomly at five different phase-contrast microscopic fields and the total number of cells counted using Video Pro 32 Image Analysis system. Percent inhibition in migration was determined with reference to Control. […]

In test [4] the test system is ECV304. As to the kind of experiment: Tube-like-structure (TLS) formation on Matrigel. The conditions noted are these: 24 hours. How it is done:
Matrigel (350 ul) was placed into each well of a 24-well culture plate at 4° C. and was allowed to polymerize by incubation at 37° C. for 30 min. ECV304 (1.5×10^4) were seeded on the Matrigel in 500 ul DMEM supplemented with 10% FBS. MuJ-7 at four different concentrations of 0.25×, 0.5×, ×, & 5.0× were added and. the plate incubated at 37° C. for 24 hour. “×” denotes normal concentration of MuJ-7 where molar concentration of individual peptides was 10^−8 M for VIP2, BOM1, SP1, VIP3 and SOM2 and 10^−7 M for VIP1 and 10^−9 M for SOM1. […] Percent inhibition in tube area was determined with reference to untreated cells.
Matrigel (350 ul) was placed into each well of a 24-well culture plate at 4° C. and was allowed to polymerize by incubation at 37° C. for 30 min. ECV304 (1.5×10^4) were seeded on the Matrigel in 500 ul DMEM supplemented with 10% FBS. […] Percent inhibition in tube length was determined with reference to untreated cells.
Matrigel (350 ul) was placed into each well of a 24-well culture plate at 4° C. and was allowed to polymerize by incubation at 37° C. for 30 min. ECV304 (1.5×10^4) were seeded on the Matrigel in 500 ul DMEM supplemented with 10% FBS. Individual peptides of the composition MuJ-7 at three different concentrations each of N/10, N, and 10N were added and the plate incubated at 37° C. for 24 hours. […] Percent inhibition in tube length was determined with reference to Control. Similarly, three different concentrations of N/10, N, and 10N of MuJ-7 were added to the well and the plate incubated at 37° C. for 24 hours. Percent inhibition in tube length was determined with reference to Control as described previously (Table 10).

The mark [5] stands for this setting: analog at optimum concentration −8M.

Non-standard residues stand in square brackets, D forms with d. No end group written: not given here. dPhe(4-Cl) = N[C@H](Cc1ccc(Cl)cc1)C(=O)O; Aib = CC(C)(N)C(=O)O

Take “His-Ser-Asp-Ala-Val-4-Cl-D-Phe-Thr-Asp-Asn-Tyr-Thr-Arg-Leu-Arg-Lys-Gln-Leu-Ala-Val-Lys-Lys-Tyr-Leu-Asn-Ser-Ile-Leu-Asn-NH2 (HSDAV[dPhe(4-Cl)]TDNYTRLRKQLAVKKYLNSILN-NH2; N-terminus assumed; SMILES CC[C@H](C)[C@H](NC(=O)[C@H](CO)NC(=O)[C@H](CC(N)=O)NC(=O)[C@H](CC(C)C)NC(=O)[C@H](Cc1ccc(O)cc1)NC(=O)[C@H](CCCCN)NC(=O)[C@H](CCCCN)NC(=O)[C@@H](NC(=O)[C@H](C)NC(=O)[C@H](CC(C)C)NC(=O)[C@H](CCC(N)=O)NC(=O)[C@H](CCCCN)NC(=O)[C@H](CCCNC(=N)N)NC(=O)[C@H](CC(C)C)NC(=O)[C@H](CCCNC(=N)N)NC(=O)[C@@H](NC(=O)[C@H](Cc1ccc(O)cc1)NC(=O)[C@H](CC(N)=O)NC(=O)[C@H](CC(=O)O)NC(=O)[C@@H](NC(=O)[C@@H](Cc1ccc(Cl)cc1)NC(=O)[C@@H](NC(=O)[C@H](C)NC(=O)[C@H](CC(=O)O)NC(=O)[C@H](CO)NC(=O)[C@@H](N)Cc1c[nH]cn1)C(C)C)[C@@H](C)O)[C@@H](C)O)C(C)C)C(=O)N[C@@H](CC(C)C)C(=O)N[C@@H](CC(N)=O)C(N)=O) [VIP3]”: the “Percent Inhibition Proliferation” value in test [1] (EaHy.926, peptide 10^−7M) is recorded as 21%; in test [1] (EaHy.926, peptide 10^−8M), 9%; in test [1] (EaHy.926, peptide 10^−9M), 24%; in test [2] (ECV.304, peptide 10^−7M), 21%; in test [2] (ECV.304, peptide 10^−8M), 25%; in test [2] (ECV.304, peptide 10^−9M), 22%. The “Percent inhibition in migration” value in test [3] (10N) came out at 23.90%; in test [3] (100N), 11.62%; in test [3] (1000N), 0.00%; in test [3] (N/10) it was 32.80%; in test [3] (N/100), 0.00%; in test [3] (N), 92.45%.

On to “[dR]PKP[Aib]Q[dW]F[dW][Aib]L-NH2 [DT-34]”, for which the “PERCENT INHIBITION OF PROLIFERATION” value is 12.1% in test [2] (ECV304, 10^−7M); 15.6% in test [2] (ECV304, 10^−8M); 14.3% in test [2] (ECV304, 10^−9M). The “PERCENT INHIBITION MIGRATION” value in test [3] (setting [5]) turned out to be 53.6%. For the same substance, in test [4] (peptide −8M), the “INHIBITION OF TUBE LENGTH” value was determined as 0%.

For KPRRPYTDNYTRLRKQMAVKKYLNSILN-NH2 [VIP1], the “Percent Inhibition Proliferation” value in test [1] (EaHy.926, peptide 10^−7M) turned out to be 25%; in test [1] (EaHy.926, peptide 10^−8M), 24%; in test [1] (EaHy.926, peptide 10^−9M) it was 23%; in test [2] (ECV.304, peptide 10^−7M), 15%; in test [2] (ECV.304, peptide 10^−8M), 17%; in test [2] (ECV.304, peptide 10^−9M) it was 16%. Moreover, the “Percent inhibition in migration” value in test [3] (10N) turned out to be 62.60%; in test [3] (100N), 66.52%; in test [3] (1000N), 0.00%; in test [3] (N/10) it was 52.60%; in test [3] (N/100) it was 37.53%; in test [3] (N), 69.40%.

As for “Leu-Met-Tyr-Pro-Thr-D-Tyr-Leu-Lys-OH (LMYPT[dY]LK-OH; N-terminus assumed; SMILES CSCC[C@H](NC(=O)[C@@H](N)CC(C)C)C(=O)N[C@@H](Cc1ccc(O)cc1)C(=O)N1CCC[C@H]1C(=O)N[C@H](C(=O)N[C@H](Cc1ccc(O)cc1)C(=O)N[C@@H](CC(C)C)C(=O)N[C@@H](CCCCN)C(=O)O)[C@@H](C)O) [DT-13]”, the “PERCENT INHIBITION OF PROLIFERATION” value is 22.6% in test [2] (ECV304, 10^−7M); 20.3% in test [2] (ECV304, 10^−8M); 18.4% in test [2] (ECV304, 10^−9M). The “PERCENT INHIBITION MIGRATION” value in test [3] (setting [5]) turned out to be 89.7%. The “INHIBITION OF TUBE LENGTH” value in test [4] (peptide −8M) stood at 16.2%.

Take “D-Phe-Gln-Trp-Aib-Val-Gly-His-Ile-NH2 ([dF]QW[Aib]VGHI-NH2; N-terminus assumed; SMILES CC[C@H](C)[C@H](NC(=O)[C@H](Cc1c[nH]cn1)NC(=O)CNC(=O)[C@@H](NC(=O)C(C)(C)NC(=O)[C@H](Cc1c[nH]c2ccccc12)NC(=O)[C@H](CCC(N)=O)NC(=O)[C@H](N)Cc1ccccc1)C(C)C)C(N)=O) [DT-26]”: the “PERCENT INHIBITION OF PROLIFERATION” value in test [2] (ECV304, 10^−7M) came out at 0%; in test [2] (ECV304, 10^−8M) it was 0%; in test [2] (ECV304, 10^−9M) it was 0%. Moreover, the “PERCENT INHIBITION MIGRATION” value in test [3] (setting [5]) is recorded as 0%. The “INHIBITION OF TUBE LENGTH” value in test [4] (peptide −8M) is recorded as 0%.

As to [dF]QWAV[Aib]HI-NH2 [DT-27], the “PERCENT INHIBITION OF PROLIFERATION” value in test [2] (ECV304, 10^−7M) stood at 14.3%; in test [2] (ECV304, 10^−8M), 11.9%; in test [2] (ECV304, 10^−9M), 6.7%. Moreover, the “PERCENT INHIBITION MIGRATION” value in test [3] (setting [5]) amounted to 0%. Besides, in test [4] (peptide −8M), the “INHIBITION OF TUBE LENGTH” value was 29.7%.

Regarding “D-Phe-Cys-Tyr-D-Trp-Lys-Thr-Aib-Thr-NH2 (XCYXKTXT; D-amino acids, Aib, C-terminal amide) [DT-71]”, the “PERCENT INHIBITION OF PROLIFERATION” value in test [2] (ECV304, 10^−8M) is on record as 14.6%; in test [2] (ECV304, 10^−9M), 12.1%; in test [2] (ECV304, 10^−10M) it was 9.4%. Besides, the “PERCENT INHIBITION MIGRATION” value in test [3] (analog at optimum concentration −9M) was 68.2%. Moreover, the “INHIBITION OF TUBE LENGTH” value in test [4] (peptide −9M) is given as 9.9%.
